# Measured values as given in patent US20230250060A1 (IFM Due, Inc., priority 2022, published 2023).
# Biological target: T1, STING (Homo sapiens, UniProt Q86WV6, G230A/H232R/R293Q/R71H)
# T1 construct: host or cells: THP1-Dual KO-IFNAR2 cells
# Test: STING reporter assay (luciferase) in THP1-Dual KO-IFNAR2 cells stimulated with 2′3′cGAMP
# Type: cell-based
# Settings: 2′3′cGAMP 15 μM final, 24 h, luciferase reporter activity, read-out: Pharmaron, THP1_IFNAR2 STING 24 h Luci Normalized: GeoMean EC50
# Summary of the method: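 THP1-Dual KO-IFNAR2 cells (2×10E6 cells/mL) exposed to compounds at 0.0017-100 μM final and stimulated with 2′3′cGAMP (15 μM final) delivered via Lipofectamine 2000. After 24 h at 37° C., secreted luciferase in supernatant read with QUANTI-Luc Plus; EC50 derived from luminescence.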
# T1 sequence (Q86WV6 whole entry R71H/G230A/H232R/R293Q): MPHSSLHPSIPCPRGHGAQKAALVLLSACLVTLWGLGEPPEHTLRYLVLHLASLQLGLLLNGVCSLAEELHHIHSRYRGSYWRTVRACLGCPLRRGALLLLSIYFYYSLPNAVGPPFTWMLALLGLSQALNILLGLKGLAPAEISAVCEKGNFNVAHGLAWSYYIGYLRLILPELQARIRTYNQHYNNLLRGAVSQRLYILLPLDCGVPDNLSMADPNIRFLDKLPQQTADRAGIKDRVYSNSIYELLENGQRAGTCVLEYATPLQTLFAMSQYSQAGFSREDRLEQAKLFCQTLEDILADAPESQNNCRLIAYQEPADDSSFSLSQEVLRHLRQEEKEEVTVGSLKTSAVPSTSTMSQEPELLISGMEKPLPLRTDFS
row,Compound,EC50
1,"O=C(Nc1c[nH]c2ccc(CCOc3ccc(C(F)(F)F)cc3)cc12)c1ccn[nH]1 [Compound 160, N-(5-(2-(4-(trifluoromethyl)phenoxy)ethyl)-1H-indol-3-yl)-1H-pyrazole-5-carboxamide]",200 to 1000 nM
2,"Cn1nccc1C(=O)Nc1c[nH]c2ccc(OCc3ccc(C(F)(F)F)cc3)cc12 [Compound 162, 1-methyl-N-(5-((4-(trifluoromethyl)benzyl)oxy)-1H-indol-3-yl)-1H-pyrazole-5-carboxamide]",200 to 1000 nM
3,"O=C(Nc1c[nH]c2ccc(O[C@H]3C[C@@H](c4ccc(C(F)(F)F)cc4)C3)cc12)c1ccncc1 [Compound 166, N-(5-((1s,3s)-3-(4-(trifluoromethyl)phenyl)cyclobutoxy)-1H-indol-3-yl)isonicotinamide]",200 to 1000 nM
4,"O=C(Nc1c[nH]c2ccc(O[C@H]3C[C@@H](c4ccc(C(F)(F)F)cc4)C3)cc12)c1ccn[nH]1 [Compound 167, N-(5-((1s,3s)-3-(4-(trifluoromethyl)phenyl)cyclobutoxy)-1H-indol-3-yl)-1H-pyrazole-5-carboxamide]",40 to 200 nM
5,"Cn1nccc1C(=O)Nc1c[nH]c2ccc(O[C@H]3C[C@@H](c4ccc(C(F)(F)F)cc4)C3)cc12 [Compound 168, 1-methyl-N-(5-((1s,3s)-3-(4-(trifluoromethyl)phenyl)cyclobutoxy)-1H-indol-3-yl)-1H-pyrazole-5-carboxamide]",200 to 1000 nM
6,"O=C(Nc1c[nH]c2ccc(O[C@H]3C[C@@H](c4ccc(C(F)(F)F)cc4)C3)cc12)c1cccnc1 [Compound 169, N-(5-((1s,3s)-3-(4-(trifluoromethyl)phenyl)cyclobutoxy)-1H-indol-3-yl)nicotinamide]",40 to 200 nM
7,"O=C(Nc1c[nH]c2ccc(O[C@H]3C[C@@H](c4ccc(C(F)(F)F)cc4)C3)cc12)c1ccccn1 [Compound 170, N-(5-((1s,3s)-3-(4-(trifluoromethyl)phenyl)cyclobutoxy)-1H-indol-3-yl)picolinamide]",1000 to 5000 nM
8,"CC12CC(C(=O)Nc3c[nH]c4ccc(O[C@H]5C[C@@H](c6ccc(C(F)(F)F)cc6)C5)cc34)(C1)C2 [Compound 171, 3-methyl-N-(5-((1s,3s)-3-(4-(trifluoromethyl)phenyl)cyclobutoxy)-1H-indol-3-yl)bicyclo[1.1.1]pentane-1-carboxamide]",200 to 1000 nM
9,"O=C(Nc1c[nH]c2ccc(O[C@H]3C[C@@H](c4ccc(C(F)(F)F)cc4)C3)cc12)C1CC12CC2 (some centres unmarked) [Compound 172, N-(5-((1s,3s)-3-(4-(trifluoromethyl)phenyl)cyclobutoxy)-1H-indol-3-yl)spiro[2.2]pentane-1-carboxamide]",200 to 1000 nM
10,"O=C(Nc1c[nH]c2ccc(O[C@H]3C[C@@H](c4ccc(C(F)(F)F)cc4)C3)cc12)C12CC(C1)C2 [Compound 173, N-(5-((1s,3s)-3-(4-(trifluoromethyl)phenyl)cyclobutoxy)-1H-indol-3-yl)bicyclo[1.1.1]pentane-1-carboxamide]",200 to 1000 nM
11,"O=C(Nc1c[nH]c2ccc(O[C@H]3C[C@@H](c4ccc(C(F)(F)F)cc4)C3)cc12)c1ncccc1F [Compound 174, 3-fluoro-N-(5-((1s,3s)-3-(4-(trifluoromethyl)phenyl)cyclobutoxy)-1H-indol-3-yl)picolinamide]",200 to 1000 nM
12,"O=C(Nc1c[nH]c2ccc(O[C@H]3C[C@@H](c4ccc(C(F)(F)F)cc4)C3)cc12)c1nccs1 [Compound 175, N-(5-((1s,3s)-3-(4-(trifluoromethyl)phenyl)cyclobutoxy)-1H-indol-3-yl)thiazole-2-carboxamide]",200 to 1000 nM
13,"Cc1oncc1C(=O)Nc1c[nH]c2ccc(O[C@H]3C[C@@H](c4ccc(C(F)(F)F)cc4)C3)cc12 [Compound 176, 5-methyl-N-(5-((1s,3s)-3-(4-(trifluoromethyl)phenyl)cyclobutoxy)-1H-indol-3-yl)isoxazole-4-carboxamide]",5000 to 100000 nM
14,"Cc1noc(C)c1C(=O)Nc1c[nH]c2ccc(O[C@H]3C[C@@H](c4ccc(C(F)(F)F)cc4)C3)cc12 [Compound 177, 3,5-dimethyl-N-(5-((1s,3s)-3-(4-(trifluoromethyl)phenyl)cyclobutoxy)-1H-indol-3-yl)isoxazole-4-carboxamide]",40 to 200 nM
15,"O=C(Nc1c[nH]c2ccc(O[C@H]3C[C@@H](c4ccc(C(F)(F)F)cc4)C3)cc12)c1cncs1 [Compound 178, N-(5-((1s,3s)-3-(4-(trifluoromethyl)phenyl)cyclobutoxy)-1H-indol-3-yl)thiazole-5-carboxamide]",200 to 1000 nM

# Results, then the compound that gave them:
row,EC50,Compound
1,200 to 1000 nM,"O=C(Nc1c[nH]c2ccc(OCCc3ccc(C(F)(F)F)cc3)cc12)c1ncco1 [Compound 161, N-(5-(4-(trifluoromethyl)phenethoxy)-1H-indol-3-yl)oxazole-2-carboxamide]"
2,200 to 1000 nM,"CC12CC(C(=O)Nc3c[nH]c4ccc(OCc5ccc(C(F)(F)F)cc5)cc34)(C1)C2 [Compound 163, 3-methyl-N-(5-((4-(trifluoromethyl)benzyl)oxy)-1H-indol-3-yl)bicyclo[1.1.1]pentane-1-carboxamide]"
3,200 to 1000 nM,"O=C(Nc1c[nH]c2ccc(OCc3ccc(C(F)(F)F)cc3)cc12)C12CC(C1)C2 [Compound 164, N-(5-((4-(trifluoromethyl)benzyl)oxy)-1H-indol-3-yl)bicyclo[1.1.1]pentane-1-carboxamide]"
4,1000 to 5000 nM,"O=C(Nc1c[nH]c2ccc(OCc3ccc(C(F)(F)F)cc3)cc12)c1cscn1 [Compound 165, N-(5-((4-(trifluoromethyl)benzyl)oxy)-1H-indol-3-yl)thiazole-4-carboxamide]"
5,200 to 1000 nM,"O=C(Nc1c[nH]c2ccc(OCC[C@@H]3C[C@@H]4CN(CC(F)(F)F)C[C@@H]4C3)cc12)c1ccncc1 [Compound 179, N-(5-(2-((3aR,5r,6aS)-2-(2,2,2-trifluoroethyl)octahydrocyclopenta[c]pyrrol-5-yl)ethoxy)-1H-indol-3-yl)isonicotinamide]"
6,200 to 1000 nM,"O=C(Nc1c[nH]c2ccc(OCC[C@@H]3C[C@@H]4CN(CC(F)(F)F)C[C@@H]4C3)cc12)c1ccn[nH]1 [Compound 180, N-(5-(2-((3aR,5r,6aS)-2-(2,2,2-trifluoroethyl)octahydrocyclopenta[c]pyrrol-5-yl)ethoxy)-1H-indol-3-yl)-1H-pyrazole-5-carboxamide]"
7,200 to 1000 nM,"Cn1nccc1C(=O)Nc1c[nH]c2ccc(OCC[C@@H]3C[C@@H]4CN(CC(F)(F)F)C[C@@H]4C3)cc12 [Compound 181, 1-methyl-N-(5-(2-((3aR,5r,6aS)-2-(2,2,2-trifluoroethyl)octahydrocyclopenta[c]pyrrol-5-yl)ethoxy)-1H-indol-3-yl)-1H-pyrazole-5-carboxamide]"
8,200 to 1000 nM,"O=C(Nc1c[nH]c2ccc(OCC[C@@H]3C[C@@H]4CN(CC(F)(F)F)C[C@@H]4C3)cc12)c1cccnc1 [Compound 182, N-(5-(2-((3aR,5r,6aS)-2-(2,2,2-trifluoroethyl)octahydrocyclopenta[c]pyrrol-5-yl)ethoxy)-1H-indol-3-yl)nicotinamide]"
9,1000 to 5000 nM,"O=C(Nc1c[nH]c2ccc(OCC[C@@H]3C[C@@H]4CN(CC(F)(F)F)C[C@@H]4C3)cc12)c1ccccn1 [Compound 183, N-(5-(2-((3aR,5r,6aS)-2-(2,2,2-trifluoroethyl)octahydrocyclopenta[c]pyrrol-5-yl)ethoxy)-1H-indol-3-yl)picolinamide]"
10,200 to 1000 nM,O=C(CC1CC1)Nc1c[nH]c2ccc(OCC[C@@H]3C[C@@H]4CN(CC(F)(F)F)C[C@@H]4C3)cc12 [Compound 184]
11,200 to 1000 nM,"O=C(Nc1c[nH]c2ccc(OCC[C@@H]3C[C@@H]4CN(CC(F)(F)F)C[C@@H]4C3)cc12)C12CC(F)(C1)C2 [Compound 185, 3-fluoro-N-(5-(2-((3aR,5r,6aS)-2-(2,2,2-trifluoroethyl)octahydrocyclopenta[c]pyrrol-5-yl)ethoxy)-1H-indol-3-yl)bicyclo[1.1.1]pentane-1-carboxamide]"
12,200 to 1000 nM,"O=C(Nc1c[nH]c2ccc(OCC[C@@H]3C[C@@H]4CN(CC(F)(F)F)C[C@@H]4C3)cc12)C12CC(C1)C2 [Compound 186, N-(5-(2-((3aR,5r,6aS)-2-(2,2,2-trifluoroethyl)octahydrocyclopenta[c]pyrrol-5-yl)ethoxy)-1H-indol-3-yl)bicyclo[1.1.1]pentane-1-carboxamide]"
13,1000 to 5000 nM,"O=C(Nc1c[nH]c2ccc(OCC[C@@H]3C[C@@H]4CN(CC(F)(F)F)C[C@@H]4C3)cc12)c1ncccc1F [Compound 187, 3-fluoro-N-(5-(2-((3aR,5r,6aS)-2-(2,2,2-trifluoroethyl)octahydrocyclopenta[c]pyrrol-5-yl)ethoxy)-1H-indol-3-yl)picolinamide]"
14,200 to 1000 nM,"O=C(Nc1c[nH]c2ccc(OCC[C@@H]3C[C@@H]4CN(CC(F)(F)F)C[C@@H]4C3)cc12)c1nccs1 [Compound 188, N-(5-(2-((3aR,5r,6aS)-2-(2,2,2-trifluoroethyl)octahydrocyclopenta[c]pyrrol-5-yl)ethoxy)-1H-indol-3-yl)thiazole-2-carboxamide]"
15,200 to 1000 nM,"Cc1noc(C)c1C(=O)Nc1c[nH]c2ccc(OCC[C@@H]3C[C@@H]4CN(CC(F)(F)F)C[C@@H]4C3)cc12 [Compound 189, 3,5-dimethyl-N-(5-(2-((3aR,5r,6aS)-2-(2,2,2-trifluoroethyl)octahydrocyclopenta[c]pyrrol-5-yl)ethoxy)-1H-indol-3-yl)isoxazole-4-carboxamide]"
16,200 to 1000 nM,"O=C(Nc1c[nH]c2ccc(OCC[C@@H]3C[C@@H]4CN(CC(F)(F)F)C[C@@H]4C3)cc12)c1cncs1 [Compound 190, N-(5-(2-((3aR,5r,6aS)-2-(2,2,2-trifluoroethyl)octahydrocyclopenta[c]pyrrol-5-yl)ethoxy)-1H-indol-3-yl)thiazole-5-carboxamide]"
17,40 to 200 nM,"O=C(Nc1c[nH]c2ccc(OCCc3ccc(C(F)(F)F)cc3)cc12)C1CC2(CCC2)C1 [Compound 191, N-(5-(4-(trifluoromethyl)phenethoxy)-1H-indol-3-y)spiro[3.3]heptane-2-carboxamide]"
